# Measured values from patent publication US20220296610A1, “COMPOSITIONS AND METHODS FOR TREATMENT OF INFECTION AND NOVEL COSMECEUTICAL PREPARATIONS” (priority 2017, published 2022).
# Where “and” joins values, the source holds several entries; their conditions need not be identical. Identical values can stand only once. Entries after “also recorded” stand apart in the source; their conditions may differ.
# How the values were obtained:
# [1] = system: bacteria obtained from the skin surface of an individual; test: Filter disk growth inhibition on LB-agar plates; type: cell-based
# Protocol: 10 mm filter disks (numbered 1 to 4) were soaked in 10 μl of 10.0, 5.0, 2.5, and 1.25 mg/ml of NVX-207, respectively, and placed on LB-Agar plates on which a skin bacterial isolate had been plated. 15 ml of LB/Agar was used for pouring one plate. Control disks were soaked in 10 μl of the corresponding solvent and paced in the center of the plates. LB-Agar plates were then cultivated over night at 30° C. and bacterial growth was monitored by comparing growth inhibition zones around the soaked disks. […]
# Antibacterial effects of NVX-207 were tested against bacteria obtained from the skin surface of an individual. NVX-207 was used either as a cyclodextrin formulation (NVX-207 (at 10 mg/ml final concentration) was formulated in 2-hydroxypropyl-gamma-cyclodextrin (at 150 mg/ml final concentration) in water) (FIG. 6A), or a Tween 80/Ethanol formulation (described in Example 2) (FIG. 6B). Filter disks 1 to 4 were soaked in 10 μl of 10.0, 5.0, 2.5, and 1.25 mg/ml of NVX-207, respectively, and placed on LB-agar plates (total volume of 15 ml LB-agar per plate) on which a skin bacterial isolate had been plated at low density. Control disks placed in the center of the plates were soaked in 10 μl of the corresponding solvent. LB-Agar plates were then cultivated over night at 30° C. and bacterial growth was examined after 18 hours. […]
# [2] = system: Soft tissue sarcoma; test: Intratumoral treatment of canine cancer patient, soft tissue sarcoma; type: in vivo, dog; details: Patient #2
# Protocol: (§1) A study was performed using NVX-207 on a canine squamous cell carcinoma of the nasal plane. […] Histology was confirmed by biopsy before treatment. Prior to each treatment, the dog was physically examined and routine blood counts and serum chemistry analyses were performed. Tumor measurements were obtained using callipers at each treatment. Tumor size was determined by the longest diameter of the target lesion or by calculating the mean of the longest diameters of the lesion treated. Tumor response was classified as stable (less than 50% change), partial—(decrease by >50%) or as a complete response if no palpable or visible evidence of tumor was available. Intralesional treatment of the patient comprised local infiltration of the local tumor, including 1 cm of the surrounding tissue, with NVX-207 in combination with cisplatin. […] Tumor recurrence was observed 18 months later. […] No further complications were observed.
# (§2) Patients 1, 2, and 3 correspond to the dogs described above with squamous, soft tissue, and mammary carcinoma, respectively. Tumor size and tumor responses were determined as in described above. Intralesional treatment of the patients comprised local infiltration of the local tumor including 1 cm of the surrounding tissue—if applicable—with NVX-207 alone (for patients #2-#4) or in combination with cisplatin (patient #1, see also FIG. 3). […]
# [3] = system: canine cancer patients; test: Inflammation and infection after repeated intralesional injections in dogs; type: in vivo, dog; details: intratumoral treatment of canine malignancies
# Excerpt: FIGS. 3A-D show the effects of intratumoral treatment of NVX-207 in various spontaneously arising canine malignancies (before and after pictures). […] FIGS. 3B-D show NVX-207 treatment effects in a canine mammary carcinoma and two separate cases of soft tissue sarcoma, respectively. […] Microbial infections (with bacteria, fungi, viruses or protozoa) usually almost invariably accompany multiple injections under similar non-sterile conditions, because the coat of the animal cannot be efficiently sterilized. This in turn leads to unwanted treatment interruptions.
# FIGS. 3B-D show NVX-207 treatment effects in a canine mammary carcinoma and two separate cases of soft tissue sarcoma, respectively. […] Microbial infections (with bacteria, fungi, viruses or protozoa) usually almost invariably accompany multiple injections under similar non-sterile conditions, because the coat of the animal cannot be efficiently sterilized. This in turn leads to unwanted treatment interruptions.
# As noted above, strong evidence for an antibacterial activity of NVX-207 also comes from the canine cancer treatments. Dogs were treated over several months by repeated intralesional and peritumoral injections of NVX-207. […] This is highly unusual, since intralesional treatments under the same conditions are usually associated with a high incidence of serious local soft tissue infections leading to treatment interruptions. […]
# [4] = system: human fibroblasts; test: Survival of fibroblast cultures at 80% and 30% confluency; type: cell-based; details: 2.5 μM; 30% vs 80% confluency
# Protocol: (§3) All cells were treated with 2.5 μM NVX-207. Percentage (means±S.E., n=3) of control-treated cells are given. […] Mean survival in NVX-207 treated fibroblasts at 80% confluency was 92% (S.E.=3.8) versus 3.8% mean survival (S.E.=0.4) at 30% confluency. […] HUVECs, keratinocytes and fibroblast cells were obtained from Lonza GmbH (Wuppertal, Germany) and cultivated according to the manufacturer's instructions.
# (§4) The IC50 value of betulinic acid in human keratinocytes was recently determined to be ˜5.0 μg/ml (Tino Galgon al., Exp Dermatol. 14:736-43, 2005), while the IC50 of NVX-207 is ˜0.7 μg/ml. Consequently, the IC50 value of NVX-207 was almost 10-fold lower compared to betulinic acid on a molar basis. […] Under normal physiological circumstances, the endothelium, as well as fibroblasts and keratinocytes of the tissue like normal skin, show relatively low turn-over and limited cell divisions to maintain tissue integrity. […] Angiogenesis also plays a role in the pathogenesis of rosacea and a topical angiogenesis inhibitor (dobesilate) for treatment of rosacea has been described. Local inhibition of angiogenic factors function may prevent skin angiogenesis and inflammation in rosacea and other angiogenesis-dependent skin diseases in which a dense network of new vessels is produced and inflammatory cells are present. […]
# [5] = system: human hyperkeratotic lesion with an inflammatory component; test: Topical treatment of human hyperkeratotic lesion; type: in vivo; details: 1% topical solution
# [6] = system: canine basal cell carcinoma; type: in vivo, dog
# Excerpt: Differential diagnoses included virus induced lesions such as warts which are caused by papillomaviruses, and are thus an example of anti-microbial/anti-viral activity.
# [7] = system: Sweat gland adenocarcinoma; test: Intratumoral treatment of canine cancer patient, sweat gland adenocarcinoma; type: in vivo, dog; details: Patient #4, NVX-207 alone 10 mg/ml in 2-hydroxypropyl-γ-cyclodextrin
# Protocol: as §1, §2
# [8] = system: pig skin; details: in vivo, 2 weeks
# Excerpt: Skin areas were visually inspected every day.
# Skin areas were visually inspected every day. Photographs were taken at three day intervals. […] On day 14, pigs were anesthetized with ketamine and azaperon, and euthanized by intracardial application of T61®.
# [9] = system: human umbilical vein endothelial cells (HUVEC); test: Survival of endothelial cell cultures at 80% and 30% confluency; type: cell-based; details: 2.5 μM
# Protocol: as §3, §4
# [10] = system: Mammary carcinoma; test: Intratumoral treatment of canine cancer patient, mammary carcinoma; type: in vivo, dog; details: Patient #3, NVX-207 alone 10 mg/ml in 2-hydroxypropyl-γ-cyclodextrin
# Protocol: as §1, §2
# [11] = system: human keratinocytes; test: Survival of keratinocyte cultures at 80% and 30% confluency; type: cell-based; details: 2.5 μM; 30% vs 80% confluency
# Protocol: as §3, §4
smiles,measurement,setting,value
"C=C(C)[C@@H]1CC[C@]2(C(=O)OCC(N)(CO)CO)CC[C@]3(C)[C@H](CC[C@@H]4[C@@]5(C)CC[C@H](OC(C)=O)C(C)(C)[C@@H]5CC[C@]43C)[C@@H]12 [NVX-207, 3-O-acetylbetulinic acid-2-amino-3-hydroxy-2-hydroxymethylpropyl ester]",estimated concentration at which strong inhibitory effects were seen,"[1]; Tween/Ethanol formulation, assumed distribution volume ~2.5 ml",1 µg/mL and 1.0 µg/mL
same,final concentration at which growth inhibition was seen,"[1]; cyclodextrin formulation, distribution volume approximately 1 ml",~100 µg/mL
same,"OS, overall survival time",[2],15 months
same,Tumor response,"[2]; NVX-207 alone 10 mg/ml in 2-hydroxypropyl-γ-cyclodextrin, intratumoral","PR (PR, partial remission)"
same,treatment-related inflammation,[3],completely prevented
same,more active against proliferating human fibroblasts,[4],over 20 fold
same,side effects on treated skin,[5],"No deleterious (toxic) effects; also recorded: no reddening, inflammation or any side effects"
same,reduction of lesion,[5]; next day after only one treatment,> 80%
same,reduction of lesion,"[6]; 1% topical solution every second to third day, after 3 weeks",about 90%
same,inflammation or infection at the treatment site,"[6]; dog, in vivo",absence of inflammation or infection
same,Tumor response,[7],"SD (SD, stable disease)"
same,macroscopic skin irritations,[8],No macroscopic NVX-207 related skin irritations
same,more effective in sub-confluent (30%) than nearly confluent (80%) endothelial cells,[9],~5 fold
same,Tumor response,[10],"SD (SD, stable disease)"
same,more active against proliferating keratinocytes,[11],~6 fold
